Laboratory results reported in patent US9828360B2 (Array BioPharma Inc., priority 2012, dated 2017).
pIC50: −log10 of the molar value.

The compounds below were run against TrkA (Homo sapiens, UniProt P04629) (assay: TrkA LanthaScreen Eu Kinase Binding Assay). Details: averaged IC50 values, read-out: TrkA Enzyme IC50.
Set-up: 6HIS tagged cytoplasmic domain from Invitrogen, Cat. No. PV3144; purchased Invitrogen PV3144
Protocol: TrkA binding activity was determined in a TrkA LanthaScreen™ Eu Kinase Binding Assay. 5 nM His-tagged recombinant human TrkA (6HIS tagged cytoplasmic domain from Invitrogen, Cat. No. PV3144) was incubated with 4 nM Alexa-Fluor® Tracer 236 (Invitrogen Cat. No. PV5592), 2 nM biotinylated anti-His (Invitrogen Cat. No. PV6090), and 2 nM europium-labeled Streptavidin (Invitrogen Cat. No. PV5899), in buffer (25 mM MOPS, pH 7.5, 5 mM MgCl2, 0.005% Triton X-100). Three fold serial dilutions of compounds of the invention in DMSO were added to a final percentage of 2% DMSO. After 60-minute incubation at 22° C., the reaction was measured using the EnVision mutlimode plate reader (PerkinElmer) via TR-FRET dual wavelength detection at […]. The percent of control was calculated using a ratiometric emission factor. The IC50 values were determined by fitting a four parameter model to the percent of control data.
Table A provides averaged IC50 values for compounds of the invention when tested in the assay of Example A, where A represents an averaged IC50 value <100 nM; and B represents an averaged IC50 value from 100 to 1,000 nM.

TrkA, sequence (P04629 440-796 limits assumed): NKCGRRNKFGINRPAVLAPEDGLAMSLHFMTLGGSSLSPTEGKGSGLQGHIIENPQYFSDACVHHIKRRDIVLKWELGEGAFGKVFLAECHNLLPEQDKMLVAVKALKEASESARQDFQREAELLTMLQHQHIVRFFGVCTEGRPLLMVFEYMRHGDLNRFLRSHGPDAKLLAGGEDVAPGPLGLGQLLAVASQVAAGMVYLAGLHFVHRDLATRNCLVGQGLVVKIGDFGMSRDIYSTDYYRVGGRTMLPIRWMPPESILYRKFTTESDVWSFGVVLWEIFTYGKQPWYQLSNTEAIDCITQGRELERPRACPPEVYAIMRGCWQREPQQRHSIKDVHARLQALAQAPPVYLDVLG

`COCCN1C[C@@H](NC(=O)Nc2cccnc2-c2ccccc2)[C@H](c2ccccc2)C1` (relative stereo) [Example 1, 1-(trans-1-(2-methoxyethyl)-4-phenylpyrrolidin-3-yl)-3-(2-phenylpyridin-3-yl)urea] and `COCCN1C[C@@H](NC(=O)Nc2cc(Cl)cnc2-c2ccccc2)[C@H](c2ccccc2)C1` (relative stereo) [Example 2, 1-(5-chloro-2-phenylpyridin-3-yl)-3-(trans-1-(2-methoxyethyl)-4-phenylpyrrolidin-3-yl)urea] cannot be ordered by pIC50: greater than 7.00 for the first, greater than 7.00 for the second.

First: COCCN1C[C@@H](NC(=O)Nc2cc(Br)cnc2-c2ccccc2)[C@H](c2ccccc2)C1 (relative stereo) [Example 3]
Second: COCCN1C[C@@H](NC(=O)Nc2cc(S(C)(=O)=O)cnc2-c2ccccc2)[C@H](c2ccccc2)C1 (relative stereo) [Example 4, 1-(trans-1-(2-methoxyethyl)-4-phenylpyrrolidin-3-yl)-3-(5-(methylsulfonyl)-2-phenylpyridin-3-yl)urea]
The pIC50 of the first is higher: greater than 7.00 for the first, 6.00 to 7.00 for the second.

First: COCCN1C[C@@H](NC(=O)Nc2c(-c3ccccc3)noc2C)[C@H](c2ccccc2)C1 (relative stereo) [Example 37, 1-((trans)-1-(2-methoxyethyl)-4-phenylpyrrolidin-3-yl)-3-(5-methyl-3-phenylisoxazol-4-yl)urea]
Second: COCCN1C[C@@H](NC(=O)Nc2cc(Br)cnc2-c2ccccc2)[C@H](c2ccccc2)C1 [Example 5, 1-(5-bromo-2-phenylpyridin-3-yl)-3-((3S,4R)-1-(2-methoxyethyl)-4-phenylpyrrolidin-3-yl)urea]
The pIC50 of the first is lower: 6.00 to 7.00 for the first, greater than 7.00 for the second.

`COCCN1C[C@@H](NC(=O)Nc2cc(Br)cnc2-c2ccccc2)[C@H](c2ccc(F)c(F)c2)C1` [Example 6, 1-(5-bromo-2-phenylpyridin-3-yl)-3-((3S,4R)-4-(3,4-difluorophenyl)-1-(2-methoxyethyl)pyrrolidin-3-yl)urea] and `COCCN1C[C@@H](NC(=O)Nc2cc(C)cnc2-c2ccccc2)[C@H](c2ccc(F)c(F)c2)C1` [Example 30, 1-((3S,4R)-4-(3,4-difluorophenyl)-1-(2-methoxyethyl)pyrrolidin-3-yl)-3-(5-methyl-2-phenylpyridin-3-yl)urea] cannot be ordered by pIC50: greater than 7.00 for the first, greater than 7.00 for the second.

First: COCCN1C[C@@H](NC(=O)Nc2cc(-c3ccccc3)cnc2-c2ccccc2)[C@H](c2ccccc2)C1 [Example 7, 1-(2,5-diphenylpyridin-3-yl)-3-((3S,4R)-1-(2-methoxyethyl)-4-phenylpyrrolidin-3-yl)urea]
Second: COCCN1C[C@@H](NC(=O)Nc2ccc(-c3ccccc3)nc2C)[C@H](c2ccccc2)C1 [Example 8, 1-((3S,4R)-1-(2-methoxyethyl)-4-phenylpyrrolidin-3-yl)-3-(2-methyl-6-phenylpyridin-3-yl)urea]
The pIC50 of the first is higher: greater than 7.00 for the first, 6.00 to 7.00 for the second. The first is the more potent here.

First: COCCN1C[C@@H](NC(=O)Nc2ccc(-c3ccccc3)nc2C)[C@H](c2ccc(F)c(F)c2)C1 [Example 9, 1-((3S,4R)-4-(3,4-difluorophenyl)-1-(2-methoxyethyl)pyrrolidin-3-yl)-3-(2-methyl-6-phenylpyridin-3-yl)urea]
Second: COCCN1C[C@@H](NC(=O)Nc2ccc(C)nc2-c2ccccc2)[C@H](c2ccc(F)c(F)c2)C1 [Example 29, 1-((3S,4R)-4-(3,4-difluorophenyl)-1-(2-methoxyethyl)pyrrolidin-3-yl)-3-(6-methyl-2-phenylpyridin-3-yl)urea]
The pIC50 of the first is lower: 6.00 to 7.00 for the first, greater than 7.00 for the second. The second is the more potent here.

`COCCN1C[C@@H](NC(=O)Nc2cc(-c3ccccc3)cnc2C)[C@H](c2ccc(F)c(F)c2)C1` [Example 10, 1-((3S,4R)-4-(3,4-difluorophenyl)-1-(2-methoxyethyl)pyrrolidin-3-yl)-3-(2-methyl-5-phenylpyridin-3-yl)urea] and `COCCN1C[C@@H](NC(=O)Nc2cc(-c3cccnc3)cnc2C)[C@H](c2ccc(F)c(F)c2)C1` [Example 15, 1-((3S,4R)-4-(3,4-difluorophenyl)-1-(2-methoxyethyl)pyrrolidin-3-yl)-3-(6-methyl-[3,3′-bipyridin]-5-yl)urea] fall in the same range of pIC50: 6.00 to 7.00 for the first, 6.00 to 7.00 for the second.

`COCCN1C[C@@H](NC(=O)Nc2ccc(Br)nc2-c2ccccc2)[C@H](c2ccc(F)c(F)c2)C1` [Example 11, 1-(6-bromo-2-phenylpyridin-3-yl)-3-((3S,4R)-4-(3,4-difluorophenyl)-1-(2-methoxyethyl)pyrrolidin-3-yl)urea] and `COCCN1C[C@@H](NC(=O)Nc2ccc(Cl)nc2-c2ccccc2)[C@H](c2ccc(F)c(F)c2)C1` [Example 21, 1-(6-chloro-2-phenylpyridin-3-yl)-3-((3S,4R)-4-(3,4-difluorophenyl)-1-(2-methoxyethyl)pyrrolidin-3-yl)urea] cannot be ordered by pIC50: greater than 7.00 for the first, greater than 7.00 for the second.

`COCCN1C[C@@H](NC(=O)Nc2ccc(S(C)(=O)=O)nc2-c2ccccc2)[C@H](c2ccc(F)c(F)c2)C1` [Example 12, 1-((3S,4R)-4-(3,4-difluorophenyl)-1-(2-methoxyethyl)pyrrolidin-3-yl)-3-(6-(methylsulfonyl)-2-phenylpyridin-3-yl)urea] and `COCCN1C[C@@H](NC(=O)Nc2ccc(S(=O)(=O)C3CC3)nc2-c2ccccc2)[C@H](c2ccc(F)c(F)c2)C1` [Example 22, 1-(6-(cyclopropylsulfonyl)-2-phenylpyridin-3-yl)-3-((3S,4R)-4-(3,4-difluorophenyl)-1-(2-methoxyethyl)pyrrolidin-3-yl)urea] cannot be ordered by pIC50: greater than 7.00 for the first, greater than 7.00 for the second.

`COCCN1C[C@@H](NC(=O)Nc2cc(S(C)(=O)=O)cnc2-c2ccccc2)[C@H](c2ccc(F)c(F)c2)C1` [Example 13, 1-((3S,4R)-4-(3,4-difluorophenyl)-1-(2-methoxyethyl)pyrrolidin-3-yl)-3-(5-(methylsulfonyl)-2-phenylpyridin-3-yl)urea] and `COCCN1C[C@@H](NC(=O)Nc2cc(OC)cnc2-c2ccccc2)[C@H](c2ccc(F)c(F)c2)C1` [Example 26, 1-((3S,4R)-4-(3,4-difluorophenyl)-1-(2-methoxyethyl)pyrrolidin-3-yl)-3-(5-methoxy-2-phenylpyridin-3-yl)urea] cannot be ordered by pIC50: greater than 7.00 for the first, greater than 7.00 for the second.

First: COCCN1C[C@@H](NC(=O)Nc2ccc(-c3cccnc3)nc2C)[C@H](c2ccc(F)c(F)c2)C1 [Example 14, 1-((3S,4R)-4-(3,4-difluorophenyl)-1-(2-methoxyethyl)pyrrolidin-3-yl)-3-(6-methyl-[2,3′-bipyridin]-5-yl)urea]
Second: COCCN1C[C@@H](NC(=O)Nc2ccc(-c3cccc(S(C)(=O)=O)c3)nc2C)[C@H](c2ccc(F)c(F)c2)C1 [Example 18, 1-((3S,4R)-4-(3,4-difluorophenyl)-1-(2-methoxyethyl)pyrrolidin-3-yl)-3-(2-methyl-6-(3-(methylsulfonyl)phenyl)pyridin-3-yl)urea]
The pIC50 of the first is higher: greater than 7.00 for the first, 6.00 to 7.00 for the second. The first is the more potent here.

`COCCN1C[C@@H](NC(=O)Nc2ccc(OC)nc2-c2ccccc2)[C@H](c2ccc(F)c(F)c2)C1` [Example 16, 1-((3S,4R)-4-(3,4-difluorophenyl)-1-(2-methoxyethyl)pyrrolidin-3-yl)-3-(6-methoxy-2-phenylpyridin-3-yl)urea] and `CCOc1ccc(NC(=O)N[C@@H]2CN(CCOC)C[C@H]2c2ccc(F)c(F)c2)c(-c2ccccc2)n1` [Example 25] cannot be ordered by pIC50: greater than 7.00 for the first, greater than 7.00 for the second.

First: COCCN1C[C@@H](NC(=O)Nc2ccc(-c3ccc(S(C)(=O)=O)cc3)nc2C)[C@H](c2ccc(F)c(F)c2)C1 [Example 17, 1-((3S,4R)-4-(3,4-difluorophenyl)-1-(2-methoxyethyl)pyrrolidin-3-yl)-3-(2-methyl-6-(4-(methylsulfonyl)phenyl)pyridin-3-yl)urea]
Second: CCc1ccc(NC(=O)N[C@@H]2CN(CCOC)C[C@H]2c2ccc(F)c(F)c2)c(-c2ccccc2)n1 [Example 28, 1-((3S,4R)-4-(3,4-difluorophenyl)-1-(2-methoxyethyl)pyrrolidin-3-yl)-3-(6-ethyl-2-phenylpyridin-3-yl)urea]
The pIC50 of the first is lower: 6.00 to 7.00 for the first, greater than 7.00 for the second. The second is the more potent here.

`COCCN1C[C@@H](NC(=O)Nc2cccnc2-c2ccccc2)[C@H](c2ccc(F)c(F)c2)C1` [Example 19, 1-((3S,4R)-4-(3,4-difluorophenyl)-1-(2-methoxyethyl)pyrrolidin-3-yl)-3-(2-phenylpyridin-3-yl)urea] and `COCCN1C[C@@H](NC(=O)Nc2cncnc2-c2ccccc2)[C@H](c2ccc(F)c(F)c2)C1` [Example 23, 1-((3S,4R)-4-(3,4-difluorophenyl)-1-(2-methoxyethyl)pyrrolidin-3-yl)-3-(4-phenylpyrimidin-5-yl)urea] cannot be ordered by pIC50: greater than 7.00 for the first, greater than 7.00 for the second.

`COCCN1C[C@@H](NC(=O)Nc2ccc(=O)[nH]c2-c2ccccc2)[C@H](c2ccc(F)c(F)c2)C1` [Example 20, 1-((3S,4R)-4-(3,4-difluorophenyl)-1-(2-methoxyethyl)pyrrolidin-3-yl)-3-(6-oxo-2-phenyl-1,6-dihydropyridin-3-yl)urea] and `COCCN1C[C@@H](NC(=O)Nc2ccc(C#N)nc2-c2ccccc2)[C@H](c2ccc(F)c(F)c2)C1` [Example 24, 1-(6-cyano-2-phenylpyridin-3-yl)-3-((3S,4R)-4-(3,4-difluorophenyl)-1-(2-methoxyethyl)pyrrolidin-3-yl)urea] cannot be ordered by pIC50: greater than 7.00 for the first, greater than 7.00 for the second.

Compound `COCCOc1ccc(NC(=O)N[C@@H]2CN(CCOC)C[C@H]2c2ccc(F)c(F)c2)c(-c2ccccc2)n1` [Example 27, 1-((3S,4R)-4-(3,4-difluorophenyl)-1-(2-methoxyethyl)pyrrolidin-3-yl)-3-(6-(2-methoxyethoxy)-2-phenylpyridin-3-yl)urea] has a pIC50 greater than 7.00.
